Test [1] addresses T1, beta-2-Microglobulin (β2m) (Homo sapiens, UniProt P61769).
T1 construct: purchased Sigma Aldrich (Germany)
Nature of the test: AFM differential height β2m binding (recognition) assay on dsDNA–peptide nanopatches. The settings on record: 5 and 1.25 mg/mL β2m. The protocol: After the nanografting process, the sample was thoroughly rinsed with 1M NaCl, TE1X buffer (DNA-free buffer), followed by a hybridization procedure with 200 nM of ssDNA–peptide conjugates solution in 1 M NaCl, Te1X at pH 7.2 and the hybridization process took place at 37 °C for 1 h. This was repeated for different concentrations of the ssDNA–pep381 so as to obtain the plots in Figure 7. Next, the sample was copiously rinsed with 1M NaCl, TE1X buffer (DNA-free buffer). This was to remove any un-bound molecules and other excess molecules that were not part of the hybridization. At the end of hybridization process before β2m binding assays, we performed AFM topographic imaging at low force (~0.2 nN) in contact mode and acquired AFM micrographs of all the nanografted nanoassemblages that had undergone hybridization. This imaging section allowed us to compare the AFM micrographs of ssDNA nanopatches to the same after hybridization with ssDNA–peptide conjugates and measure their respective relative heights.
The dsDNA–peptide nanoassemblages were incubated with the known concentration of β2m solution for a period of 1 h at 25 °C. […] Next, we measured the relative height of dsDNA–peptide assemblage after the binding assay using the section tool in Igor Pro 6.3A software. […]

The target in test [2] is T1, beta-2-Microglobulin (β2m). Briefly: Surface plasmon resonance (SPR) binding of peptides to immobilized β2m. The protocol:
The interaction between the protein and computationally optimized peptides was measured using the BIAcore 3000 (GE Healthcare, Milano, Italy). β2m was immobilized at a concentration of 100 μg/mL in 10 mM acetate buffer pH 5 (flow rate 5 μL/min, time injection 7 min) on a CM5 Biacore sensor chip, using EDC/NHS chemistry following the manufacturer’s instructions. Residual reactive groups were deactivated by treatment with 1 M ethanolamine hydrochloride, pH 8.5. The reference channel was activated with EDC/NHS and deactivated with ethanolamine. The binding assays were carried out at 20 μL/min at 25 °C, with 4.5 min contact-time. Peptides were diluted in the HBS running buffer (10 mM Hepes, 150 mM NaCl, 3 mM EDTA, pH 7.4). Analyte injections were performed at the indicated concentrations. The sensor surface was regenerated by using 10mM NaOH for 1 min. The association phase (kon) was followed for 250 s, whereas the dissociation phase (koff) was followed for 300 s. The instrument BIAevaluation analysis package (version 4.1, GE Healthcare, Milano, Italy) was used to subtract the signal of the reference channel.
A general note: In SPR one partner is held on a chip, and binding of the other changes the refractive index at the surface.

Where a SMILES comes first, the peptide text is derived from it. Bridges are numbered along the chain shown (N, C = ends).

T1 sequence (P61769 21-119): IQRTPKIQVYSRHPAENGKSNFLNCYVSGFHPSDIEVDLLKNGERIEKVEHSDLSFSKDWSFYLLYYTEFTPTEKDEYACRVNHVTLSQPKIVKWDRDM

As for [CRRYSHQHYRHC] (disulfide) [pep381], the “recognition of respective binding sites on β2m, in words” value in test [1] is on record as “relatively high sensitivity”.
The term kon denotes the rate constant with which the complex forms. High values mean fast association, low ones slow association. In general, koff refers to the first-order rate constant of dissociation. A high value points to a short-lived complex. Consider `C[C@@H]1NC(=O)[C@H]([C@@H](C)O)NC(=O)[C@H](CCC(=O)O)NC(=O)[C@H](Cc2ccccc2)NC(=O)[C@@H](N)CSSC[C@@H](C(=O)O)NC(=O)[C@H](Cc2c[nH]c3ccccc23)NC(=O)[C@H](CCC(=O)O)NC(=O)[C@H](CC(N)=O)NC(=O)[C@H](CCC(N)=O)NC(=O)[C@H](CCCNC(=N)N)NC(=O)[C@H](Cc2c[nH]c3ccccc23)NC1=O` [pep331] (H-CFETAWRQNEWC-OH; disulfide 1-12), for which the kon in test [2] (BIAcore 3000, HBS pH 7.4, 25 °C, association followed for 250 s, χ^2 = 4.5) came out at 15 M⁻¹ s⁻¹. This compound gave an off-rate (koff) in test [2] (BIAcore 3000, HBS pH 7.4, 25 °C, dissociation followed for 300 s, χ^2 = 4.5) of 0.00449 s⁻¹. In test [2] (SPR, 1:1 Langmuir), the “SPR affinity, in words” value is listed as “micromolar KD estimated values”.

(Values after paper PMC7831021, “Computational Evolution of Beta-2-Microglobulin Binding Peptides for Nanopatterned Surface Sensors” (International Journal of Molecular Sciences, 2021).)
